# PubChem BioAssay (NCI)
#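 Five concentrations, 48 hours, 96-well plates. At the TGI there is no net growth.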
# Tests used:
# Test in all cases: inhibition of tumour cell growth, NCI panel, 48 h
# [1] = tested on: MDA-MB-435
# [2] = tested on: SK-MEL-28 melanoma
# [3] = tested on: CAKI-1 renal
# [4] = tested on: A549 NSCLC
# [5] = tested on: BT-549 breast
# [6] = tested on: DU-145 prostate
# [7] = tested on: NCI-H460 lung
# [8] = tested on: HCT-116 colon
# [9] = tested on: MALME-3M melanoma
# [10] = tested on: OVCAR-5 ovarian
# [11] = tested on: KM12 colon
# [12] = tested on: UACC-257 melanoma
# [13] = tested on: SNB-75 CNS
# [14] = tested on: SK-MEL-5 melanoma
structure (smiles),measurement,setting,value
CC(=O)NCCc1c[nH]c2ccc(Cl)cc12,TGI,[1],> 100 µM
same,TGI,[2],> 100 µM
same,TGI,[3],> 100 µM
same,TGI,[4],> 100 µM
same,TGI,[5],> 100 µM
same,TGI,[6],> 100 µM
same,TGI,[7],> 100 µM
same,TGI,[8],> 100 µM
same,TGI,[9],> 100 µM
same,TGI,[10],> 100 µM
same,TGI,[11],> 100 µM
same,TGI,[12],> 100 µM
same,TGI,[13],> 100 µM
same,TGI,[14],> 100 µM
O=C1NC(=O)C(C(c2ccc(Cl)cc2)C2C(=O)NC(=O)NC2=O)C(=O)N1,TGI,[1],> 100 µM
same,TGI,[2],> 100 µM
same,TGI,[3],> 100 µM
same,TGI,[4],> 100 µM
same,TGI,[5],> 100 µM
same,TGI,[6],> 100 µM
same,TGI,[7],> 100 µM
same,TGI,[8],> 100 µM
same,TGI,[9],> 100 µM
same,TGI,[10],> 100 µM
same,TGI,[11],> 100 µM
same,TGI,[12],> 100 µM
same,TGI,[14],> 100 µM
Cc1cc2c(cc1C)[n+](=O)c(C(=O)N1CCN(c3ccc([N+](=O)[O-])cc3)CC1)c(C)n2[O-],TGI,[1],> 100 µM
same,TGI,[2],> 100 µM
same,TGI,[3],> 100 µM
same,TGI,[4],> 100 µM
same,TGI,[5],49.9 µM
same,TGI,[6],> 100 µM
same,TGI,[7],> 100 µM
same,TGI,[8],> 100 µM
same,TGI,[9],> 100 µM
same,TGI,[10],> 100 µM
same,TGI,[11],> 100 µM
same,TGI,[12],> 100 µM
same,TGI,[14],> 100 µM
O=C1c2ccccc2C(=O)N1CCCCCCNOCCCN1C(=O)c2ccccc2C1=O,TGI,[1],74.7 µM
same,TGI,[2],> 100 µM
same,TGI,[3],> 100 µM
same,TGI,[4],> 100 µM
same,TGI,[5],85.4 µM
same,TGI,[6],> 100 µM
same,TGI,[7],> 100 µM
same,TGI,[8],> 100 µM
same,TGI,[9],> 100 µM
same,TGI,[10],> 100 µM
same,TGI,[11],78.8 µM
same,TGI,[12],86 µM
same,TGI,[13],> 100 µM
same,TGI,[14],30.8 µM
CCOC(=O)c1cccc([N+](=O)[O-])c1N,TGI,[1],> 100 µM
same,TGI,[2],> 100 µM
same,TGI,[3],> 100 µM
same,TGI,[4],> 100 µM
same,TGI,[5],> 100 µM
same,TGI,[6],> 100 µM
same,TGI,[7],> 100 µM
same,TGI,[8],> 100 µM
same,TGI,[9],> 100 µM
same,TGI,[10],> 100 µM
same,TGI,[11],> 100 µM
same,TGI,[12],> 100 µM
same,TGI,[13],> 100 µM
same,TGI,[14],> 100 µM
N#CC(C#N)=C(N)/C(C#N)=C/c1cc(O)c(O)c(Br)c1,TGI,[1],> 100 µM
same,TGI,[2],> 100 µM
same,TGI,[3],> 100 µM
same,TGI,[4],> 100 µM
same,TGI,[5],> 100 µM
same,TGI,[6],> 100 µM
same,TGI,[7],> 100 µM
same,TGI,[8],> 100 µM
same,TGI,[9],> 100 µM
same,TGI,[10],> 100 µM
same,TGI,[11],> 100 µM
same,TGI,[12],> 100 µM
same,TGI,[13],> 100 µM
same,TGI,[14],> 100 µM
CSc1nc2c(N)ncnc2n1C,TGI,[1],> 100 µM
same,TGI,[2],> 100 µM
same,TGI,[3],> 100 µM
same,TGI,[4],> 100 µM
same,TGI,[6],> 100 µM
same,TGI,[7],> 100 µM
same,TGI,[8],> 100 µM
same,TGI,[9],> 100 µM
same,TGI,[10],> 100 µM
same,TGI,[11],> 100 µM
same,TGI,[12],> 100 µM
same,TGI,[13],> 100 µM
same,TGI,[14],> 100 µM
COc1ccc(C2=NN(c3ccccc3)C(c3cc4cc(Br)ccc4nc3Cl)C2)cc1 (stereo not given),TGI,[1],> 25 µM
same,TGI,[2],> 25 µM
same,TGI,[3],> 25 µM
same,TGI,[4],> 25 µM
same,TGI,[5],> 25 µM
same,TGI,[6],> 25 µM
same,TGI,[8],> 25 µM
same,TGI,[9],> 25 µM
same,TGI,[10],> 25 µM
same,TGI,[11],> 25 µM
same,TGI,[13],> 25 µM
same,TGI,[14],> 25 µM
Cc1ccc(CS(=O)(=O)C/N=c2\sc3ccccc3nc2/C=C(\O)c2ccc(Cl)cc2)cc1,TGI,[1],> 10 µM
same,TGI,[2],> 10 µM
same,TGI,[3],> 10 µM
same,TGI,[4],> 10 µM
same,TGI,[5],> 10 µM
same,TGI,[6],> 10 µM
same,TGI,[8],> 10 µM
same,TGI,[9],> 10 µM
same,TGI,[10],> 10 µM
same,TGI,[11],> 10 µM
same,TGI,[12],> 10 µM
same,TGI,[13],> 10 µM
same,TGI,[14],> 10 µM
COc1ccccc1S(=O)Nc1ccccc1 (stereo not given),TGI,[1],> 100 µM
same,TGI,[2],> 100 µM
same,TGI,[4],> 100 µM
same,TGI,[5],> 100 µM
same,TGI,[6],> 100 µM
same,TGI,[7],> 100 µM
same,TGI,[8],> 100 µM
same,TGI,[9],> 100 µM
same,TGI,[10],> 100 µM
same,TGI,[11],85.1 µM
same,TGI,[12],> 100 µM
same,TGI,[14],> 100 µM
CCCCNC(=O)Nc1c(C(N)=O)c2n(c1C(=O)OCC)CCCCC2,TGI,[1],> 100 µM
same,TGI,[2],> 100 µM
same,TGI,[3],> 100 µM
same,TGI,[5],> 100 µM
same,TGI,[6],> 100 µM
same,TGI,[7],> 100 µM
same,TGI,[8],> 100 µM
same,TGI,[11],> 100 µM
same,TGI,[12],> 100 µM
same,TGI,[13],> 100 µM
same,TGI,[14],> 100 µM
OCC1OC(n2nc(-c3ccccc3)nc2-c2cnccn2)C(O)C1O (stereo not given),TGI,[1],> 100 µM
same,TGI,[2],> 100 µM
same,TGI,[4],> 100 µM
same,TGI,[5],> 100 µM
same,TGI,[6],> 100 µM
same,TGI,[7],> 100 µM
same,TGI,[8],> 100 µM
same,TGI,[10],> 100 µM
same,TGI,[11],> 100 µM
same,TGI,[12],> 100 µM
same,TGI,[13],> 100 µM
same,TGI,[14],> 100 µM
COP1(=O)NCc2ncccc2O1 (stereo not given),TGI,[1],> 100 µM
same,TGI,[2],> 100 µM
same,TGI,[3],> 100 µM
same,TGI,[4],> 100 µM
same,TGI,[5],> 100 µM
same,TGI,[6],> 100 µM
same,TGI,[7],> 100 µM
same,TGI,[8],> 100 µM
same,TGI,[10],> 100 µM
same,TGI,[11],> 100 µM
same,TGI,[12],> 100 µM
same,TGI,[13],> 100 µM
same,TGI,[14],> 100 µM
O=P1(Oc2ccc(Cl)cc2)OCCS1 (stereo not given),TGI,[2],> 100 µM
same,TGI,[4],> 100 µM
same,TGI,[5],> 100 µM
same,TGI,[6],> 100 µM
same,TGI,[7],> 100 µM
same,TGI,[8],> 100 µM
same,TGI,[9],> 100 µM
same,TGI,[10],> 100 µM
same,TGI,[12],> 100 µM
same,TGI,[13],> 100 µM
same,TGI,[14],> 100 µM
CCOC(=O)c1cc2c([nH]1)C(=O)CC1=C2CCN1Cc1ccccc1,TGI,[1],27.6 µM
same,TGI,[2],32.7 µM
same,TGI,[3],15 µM
same,TGI,[4],73.5 µM
same,TGI,[5],38.3 µM
same,TGI,[6],28.6 µM
same,TGI,[7],39.2 µM
same,TGI,[8],25.8 µM
same,TGI,[9],13.2 µM
same,TGI,[11],33.2 µM
same,TGI,[12],36.1 µM
same,TGI,[13],46.2 µM
Cc1c(C(=O)O)c2cc3ccccc3cc2c(=O)n1C,TGI,[1],> 10 µM
same,TGI,[4],> 10 µM
same,TGI,[5],> 10 µM
same,TGI,[7],> 10 µM
same,TGI,[9],> 10 µM
same,TGI,[10],> 10 µM
same,TGI,[11],> 10 µM
same,TGI,[12],> 10 µM
same,TGI,[13],> 10 µM
Cc1ccc2[nH]c3[nH]c(=O)[nH]c(=O)c3c2c1,TGI,[1],> 100 µM
same,TGI,[3],> 100 µM
same,TGI,[4],> 100 µM
same,TGI,[5],> 100 µM
same,TGI,[6],> 100 µM
same,TGI,[8],> 100 µM
same,TGI,[9],> 100 µM
same,TGI,[10],> 100 µM
same,TGI,[11],> 100 µM
same,TGI,[12],> 100 µM
same,TGI,[13],> 100 µM
same,TGI,[14],> 100 µM
CC(=O)OCC12C(OC(C)=O)C[C@@H](C)C3(CC(c4ccoc4)OC3=O)C1CCC(O)C21CO1 (stereo not given in full),TGI,[1],> 100 µM
same,TGI,[2],> 100 µM
same,TGI,[3],> 100 µM
same,TGI,[4],> 100 µM
same,TGI,[5],> 100 µM
same,TGI,[6],> 100 µM
same,TGI,[8],> 100 µM
same,TGI,[9],> 100 µM
same,TGI,[10],> 100 µM
same,TGI,[11],> 100 µM
same,TGI,[12],> 100 µM
same,TGI,[13],> 100 µM
same,TGI,[14],> 100 µM
